Assay results taken from patent publication US10562890B2, “Cancer therapeutics” (UNIVERSITY OF VIRGINIA PATENT FOUNDATION, priority 2014, dated 2020).
Values after ≈ are worked out from the molar mass of the structure shown. Read-outs that look alike come from different tables or passages of the source. Blank lines part the entries; values can stand above or below the compound they belong to.

Columns and labels:
[1] = molecular target: CBFβ-SMMHC binding to the RUNX1 Runt domain; conditions: U.S. Pat. No. 8,748,618; read-out: IC50, binding of CBF-SMMHC to the RUNX1 Runt domain; cited from earlier work
[2] = previous work, Illendula et al. Science 2015; cited from earlier work
[3] = tested on: 11 leukemia cell lines; test: Viability of a panel of 11 leukemia cell lines; assay type: cell-based; conditions: 48 hours of treatment
Source text: Compounds Al-4-88, Al-4-57, Al-10-47, Al-10-104, and Al-14-91 were screened against a panel of 11 leukemia cell lines with varying genotypes.
The viability is represented as the percent DAPI negative cells relative to DMSO control. Each symbol/color in the graphs of FIG. 4 represent an individual cell line. The symbol represents the mean of independent replicates and the error bars represent the SEM. The table indicates the morphology, type of leukemia, and known mutations for each of the 11 cell lines.

[4] = molecular target: CBFβ binding to the RUNX1 Runt domain (Homo sapiens (Human), UniProt Q13951); test: FRET assay, inhibition of CBFβ binding to the RUNX1 Runt domain; conditions: for IC50: inhibition of wild-type CBFβ binding to the RUNX1 Runt domain, NA = not active; for activity in FRET assay (structure-activity relationship, in words): relative to Al-4-57 or parent compounds
Sequence of CBFβ binding to the RUNX1 Runt domain (Q13951 1-141): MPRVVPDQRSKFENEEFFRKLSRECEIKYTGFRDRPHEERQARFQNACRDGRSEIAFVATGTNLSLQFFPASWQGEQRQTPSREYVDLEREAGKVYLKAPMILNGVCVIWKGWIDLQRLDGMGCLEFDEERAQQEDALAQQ
Source text: Fluorescence Resonance Energy Transfer (FRET) Assay:
As described in U.S. Pat. No. 8,748,618 and published PCT application WO2010/132684, a FRET assay can be used to effectively monitor the inhibition of CBF binding to the Runt domain of RUNX proteins (as well as for CBFβ-SMMHC binding to the Runt domain of RUNX proteins). For the assay, the green fluorescent protein derivative Cerulean is fused to the N-terminus of the Runt domain and the green fluorescent protein derivative Venus to the N-terminus of CBFβ (Gorczynski, M. J., J. Grembecka, et al. (2007), “Allosteric inhibition of the protein-protein interaction between the leukemia-associated proteins Runx1 and CBFbeta.” Chem Biol 14(10): 1186-97), or to CBFβ-SMMHC (Illendula, A. et al. Chemical biology. A small-molecule inhibitor of the aberrant transcription factor CBFbeta-SMMHC delays leukemia in mice. Science 347, 779-784, doi:10.1126/science.aaa0314 (2015)). The ratio of the emission intensities at 525 nm and 474 nm, measured after excitation at 433 nm, was used as the readout in this assay. The dynamic range for the FRET assay was determined by adding a 30-fold excess of untagged CBFβ (or CBFβ-SMMHC) to the assay and the associated change in the FRET ratio was defined as 100% inhibition.

[5] = tested on: T-ALL cell lines Jurkat, HBP-ALL, Loucy, and KOPTK1; test: Proliferation of T-ALL cell lines; assay type: cell-based, human
[6] = tested on: H520 lung cancer cells; test: MTT growth assay, H520 cells; assay type: cell-based; conditions: H520, 10 μM, 72 hrs
Description: (§1) Activity of Al-10-104 was tested using several lung cancer cell lines and one immortalized, non-transformed lung cell line. […] Data for the squamous cell carcinoma of the lung cell line H520 and the immortalized normal lung epithelial cell line BEAS-2B are shown in FIG. 10.
(§2) H520 cells were cultured in RPMI 1640 medium, supplemented with fetal bovine serum (10% final concentration), Hepes (1%), and sodium priruvate (1%). The MTT assay used 4×10^5/ml cells. BEAS-2B cells were cultured in DMEM medium with fetal bovine serum (10% final concentration). The MTT assay for the BEAS-2B cell line was performed using 3.5×10^5/ml cells.
(§3) Al-4-88 had no effect on either cell line.

[7] = tested on: BEAS-2B normal lung cells; test: MTT growth assay, BEAS-2B cells; assay type: cell-based; conditions: 10 μM, 72 hrs
Description: as §1, §2, §3

[8] = Aqueous solubility in 0.25% DMSO by NMR spectroscopy; assay type: physicochemical; conditions: kinetic from dmso stock
Description: Al-10-104, Al-12-126, and Al-14-91 were all soluble at concentrations above 100 μM. […] As the Runt domain is highly conserved among all three RUNX family members, we would expect to see similar effects on binding to RUNX2 or RUNX3. Therefore, the action of the inhibitors will likely affect the activity of all three RUNX family members.

[9] = molecular target: binding of CBFβ to RUNX1 in SEM cells (Homo sapiens (Human), UniProt Q13951); test: Co-immunoprecipitation of CBFβ with RUNX1 in SEM cells; assay type: cell-based; conditions: 10 μM, 6 hours
Sequence of binding of CBFβ to RUNX1 in SEM cells (Q13951 whole entry): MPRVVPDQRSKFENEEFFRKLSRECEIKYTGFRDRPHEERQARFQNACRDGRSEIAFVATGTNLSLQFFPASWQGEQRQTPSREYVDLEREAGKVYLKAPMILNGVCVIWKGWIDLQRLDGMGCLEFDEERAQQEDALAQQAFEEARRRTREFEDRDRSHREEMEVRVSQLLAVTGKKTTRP
Description: To test whether the wild-type CBFβ Inhibitors can disrupt the binding of CBFβ to RUNX1 in cells, co-immunoprecipitation experiments were performed in the SEM cell line. Co-immunoprecipitation assays of lysates from […] SEM cells were treated with Al-4-88^1, Al-10-47, Al-10-104, Al-12-126 and Al-14-91 at 10 μM for 6 hours. RUNX1-bound CBFβ protein levels and immunoprecipitated RUNX1 are shown on the top panel of FIG. 2A. Quantification of RUNX1 bound CBFβ is shown on the bottom graph.

[10] = tested on: MLL-AF4 leukemia cells; test: Cell death of MLL-AF4 leukemia cells; assay type: cell-based, human
[11] = Sedative effects and tolerability in mice after IP administration; assay type: in vivo; conditions: HCl salts with Captisol, IP at 100 mg/kg
Source text: “NA” indicates not active. […] Reasoning that this effect depended on the ability of the compound to cross the blood brain barrier (BBB), compounds Al-12-126 and Al-14-91 have appended morpholine ring substituents to the 5 position of the pyridine ring to increase the polarity of the compounds and thereby limit BBB penetration.

[12] = tested on: MCF10A-5E cells; test: Multiacini formation in 3D culture of MCF10A-5E cells; assay type: cell-based; conditions: shRUNX1 or control cells, 3D culture 10-11 days, compared to carrier control or Al-4-88
Source text: CBFβ inhibitors altered acinar morphogenesis of the basal-like (triple negative) breast epithelial cells and blocked survival of basal-like breast cancer cells in 3D organotypic culture. To evaluate whether CBFβ inhibition would influence the multicellular organization of basal-like breast epithelia, 3D culture of MCF10A-5E cells was used. Knockdown of RUNX1 in these cells delayed proliferation arrest and promoted the formation of nonspherical acini, indicating a role for RUNX1 during morphogenesis.
The multiacini resulting from CBFβ inhibition were not radially symmetric, thereby arguing against a general defect in cell polarity or proliferation arrest. Instead, the inhibitors appeared to be initiating a nascent branching program that is reminiscent of when TGFβ-family signaling is impaired.
FIG. 9A: MCF10A-5E cells stably expressing shRUNX1 or shGFP control were grown in 3D culture for 10-11 days with the indicated compounds and imaged by Brightfield microscopy. The total number of multiacini per chamber was counted and scaled to the shGFP DMSO control. Data are shown as the mean±SEM of eight independent cultures.

[13] = aqueous, 0.25% DMSO, NMR spectroscopy, read-out: aqueous solubility

SMILES: COc1ccc2[nH]c(-c3ccccn3)nc2c1 [Al-4-57]
- IC50 [1]: 22 µM
- half-life in mice [2]: short half-life
- percent viability (DAPI negative cells relative to DMSO) [3]: only very weak activity
- IC50 [4]: 34 µM

SMILES: c1ccc(-c2nc3ccccc3[nH]2)nc1 [Al-4-88, reference compound]
- proliferation [5]: did not have such an effect
- cell growth (MTT assay) [6]: no effect
- percent viability (DAPI negative cells relative to DMSO) [3]: No activity
- cell growth (MTT assay) [7]: no effect

- solubility [8]: 0.44 µM (≈ 0.123 µg/mL)
- RUNX1-bound CBFβ (co-immunoprecipitation) [9]: only a modest effect
- IC50 [4]: 3.19 ± 0.5 µM
SMILES: FC(F)(F)Oc1ccc2[nH]c(-c3ccccn3)nc2c1 [Al-10-47]
- cell death [10]: induced cell death
- percent viability (DAPI negative cells relative to DMSO) [3]: significant inhibition of the majority of the cell lines

- IC50 [4]: 1.69 ± 0.18 µM
SMILES: COc1cnc(-c2nc3cc(OC(F)(F)F)ccc3[nH]2)c(OC)c1 [Al-12-16]

SMILES: FC(F)(F)Oc1ccc2[nH]c(-c3ccc(OCCN4CCOCC4)cn3)nc2c1 [Al-12-126]
- solubility [8, 13]: > 100 µM
- RUNX1-bound CBFβ (co-immunoprecipitation) [9]: reduction in binding
- sedative effects [11]: did not induce the sedative effects
- tolerability [11]: well-tolerated
- IC50 [4]: 8.91 ± 1.3 µM

- IC50 [4]: 48.9 ± 1.6 µM
SMILES: O=C(O)c1cccnc1-c1nc2cc(OC(F)(F)F)ccc2[nH]1 [Al-12-150]

- IC50 [4]: 4.97 ± 0.27 µM
SMILES: CN(C)c1cccnc1-c1nc2cc(OC(F)(F)F)ccc2[nH]1 [Al-14-18]

- IC50 [4]: 4.83 ± 0.32 µM
SMILES: FC(F)(F)Oc1ccc2[nH]c(-c3ncccc3OCCN3CCOCC3)nc2c1 [Al-14-55]

- IC50 [4]: 1.72 ± 0.23 µM
SMILES: COc1ccnc(-c2nc3cc(OC(F)(F)F)ccc3[nH]2)c1OC [Al-14-72]

SMILES: COc1cc(OCCN2CCOCC2)cnc1-c1nc2cc(OC(F)(F)F)ccc2[nH]1 [Al-14-91]
- solubility [8, 13]: > 100 µM
- RUNX1-bound CBFβ (co-immunoprecipitation) [9]: reduction in binding
- formation of multiacinar structures [12]: dramatic increase
- sedative effects [11]: did not induce the sedative effects
- tolerability [11]: well-tolerated
- percent viability (DAPI negative cells relative to DMSO) [3]: significant inhibition of the majority of the cell lines
- IC50 [4]: 2.97 ± 0.53 µM

- activity in FRET assay (structure-activity relationship, in words) [4]: complete loss of activity
SMILES: COc1ccc2[nH]c(-c3ccccc3)nc2c1 [Compound 2a, 5-methoxy-2-phenyl-1H-benzo[d]imidazole]

- activity in FRET assay (structure-activity relationship, in words) [4]: complete loss of activity
SMILES: COc1ccc2[nH]c(-c3ccco3)nc2c1 [Compound 2b, 2-(furan-2-yl)-5-methoxy-1H-benzo[d]imidazole]

- activity in FRET assay (structure-activity relationship, in words) [4]: complete loss of activity
SMILES: c1ccc(-c2nc3ccccc3[nH]2)nc1 [Compound 3a, 2-(pyridin-2-yl)-1H-benzo[d]imidazole]

- IC50 [4]: ≥ 34.3 µM
SMILES: CCOc1ccc2[nH]c(-c3ccccn3)nc2c1 [Compound 3b, 5-ethoxy-2-(pyridin-2-yl)-1H-benzo[d]imidazole]

- IC50 [4]: ≥ 34.3 µM
SMILES: Fc1ccc2[nH]c(-c3ccccn3)nc2c1 [Compound 3c, 5-fluoro-2-(pyridin-2-yl)-1H-benzo[d]imidazole]

- activity in FRET assay (structure-activity relationship, in words) [4]: loss of activity
SMILES: Cc1ccc2[nH]c(-c3ccccn3)nc2c1 [Compound 3d, 5-methyl-2-(pyridin-2-yl)-1H-benzo[d]imidazole]

- activity in FRET assay (structure-activity relationship, in words) [4]: loss of activity
SMILES: FC(F)(F)c1ccc2[nH]c(-c3ccccn3)nc2c1 [Compound 3f, 2-(pyridin-2-yl)-5-(trifluoromethyl)-1H-benzo[d]imidazole]

- IC50 [4]: ≥ 34.3 µM
- activity in FRET assay (structure-activity relationship, in words) [4]: reduced activity
SMILES: COc1cccc2[nH]c(-c3ccccn3)nc12 [Compound 4a, 4-methoxy-2-(pyridin-2-yl)-1H-benzo[d]imidazole]

- activity in FRET assay (structure-activity relationship, in words) [4]: inactive
SMILES: COc1ccc2[nH]c(-c3cccc(OC)n3)nc2c1 [Compound 4g, 5-methoxy-2-(6-methoxypyridin-2-yl)-1H-benzo[d]imidazole]

- activity in FRET assay (structure-activity relationship, in words) [4]: inactive
SMILES: COc1ccc2[nH]c(-c3cccc(C)n3)nc2c1 [Compound 4h, 5-methoxy-2-(6-methylpyridin-2-yl)-1H-benzo[d]imidazole]
